ChEMBL document CHEMBL3792387, “A review on ROCK-II inhibitors: From molecular modelling to synthesis” (Bioorg Med Chem Lett, 2016)

Legend:
[1] = Inhibition of PKA (unknown origin); parameters: species or system Homo sapiens
[2] = target: Rho-associated protein kinase 2 (Homo sapiens, UniProt O75116); experiment: Inhibition of ROCK-2 (unknown origin)
[3] = target: Rho-associated protein kinase 1 (Homo sapiens, UniProt Q13464); experiment: Inhibition of ROCK-1 (unknown origin)
[4] = Inhibition of PKA (unknown origin) using cyclic AMP response element binding protein as substrate after 5 mins in presence of [gamma-32P]-ATP; parameters: species or system Homo sapiens

Sequence of Rho-associated protein kinase 2 (O75116 whole entry): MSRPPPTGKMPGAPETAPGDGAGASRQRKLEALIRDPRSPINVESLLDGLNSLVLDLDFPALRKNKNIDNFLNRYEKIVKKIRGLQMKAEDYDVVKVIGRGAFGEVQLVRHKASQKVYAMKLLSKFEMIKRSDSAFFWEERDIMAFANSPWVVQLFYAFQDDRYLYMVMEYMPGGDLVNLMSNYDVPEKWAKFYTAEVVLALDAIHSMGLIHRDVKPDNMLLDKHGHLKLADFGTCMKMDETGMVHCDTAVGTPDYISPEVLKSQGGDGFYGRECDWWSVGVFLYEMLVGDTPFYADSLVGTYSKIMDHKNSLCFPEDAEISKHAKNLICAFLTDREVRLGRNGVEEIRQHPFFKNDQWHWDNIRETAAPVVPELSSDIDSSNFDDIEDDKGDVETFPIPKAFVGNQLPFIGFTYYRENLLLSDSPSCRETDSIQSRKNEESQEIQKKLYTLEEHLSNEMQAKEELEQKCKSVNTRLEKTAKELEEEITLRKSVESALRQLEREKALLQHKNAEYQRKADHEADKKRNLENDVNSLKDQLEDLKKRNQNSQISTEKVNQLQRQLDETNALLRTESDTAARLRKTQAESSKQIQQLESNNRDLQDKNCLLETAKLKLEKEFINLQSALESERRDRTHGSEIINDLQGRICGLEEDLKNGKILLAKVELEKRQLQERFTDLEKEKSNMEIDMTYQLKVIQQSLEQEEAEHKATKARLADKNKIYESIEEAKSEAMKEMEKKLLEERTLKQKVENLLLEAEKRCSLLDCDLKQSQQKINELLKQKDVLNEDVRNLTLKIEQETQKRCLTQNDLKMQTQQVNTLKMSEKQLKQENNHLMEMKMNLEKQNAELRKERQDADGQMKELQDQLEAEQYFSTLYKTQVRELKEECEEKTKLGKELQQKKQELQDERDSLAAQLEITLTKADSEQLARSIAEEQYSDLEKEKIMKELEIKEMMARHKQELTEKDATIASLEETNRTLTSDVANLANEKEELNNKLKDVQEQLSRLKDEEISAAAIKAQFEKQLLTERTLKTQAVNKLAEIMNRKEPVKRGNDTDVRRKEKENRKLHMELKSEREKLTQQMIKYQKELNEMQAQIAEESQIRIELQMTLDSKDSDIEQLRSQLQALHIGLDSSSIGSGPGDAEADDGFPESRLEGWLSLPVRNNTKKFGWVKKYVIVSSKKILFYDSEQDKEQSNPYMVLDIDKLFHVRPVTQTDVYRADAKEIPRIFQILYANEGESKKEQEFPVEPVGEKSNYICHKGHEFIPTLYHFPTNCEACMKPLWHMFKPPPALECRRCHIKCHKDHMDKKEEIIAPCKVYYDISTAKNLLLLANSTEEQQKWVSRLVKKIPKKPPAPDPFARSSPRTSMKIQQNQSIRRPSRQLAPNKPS
Sequence of Rho-associated protein kinase 1 (Q13464 whole entry): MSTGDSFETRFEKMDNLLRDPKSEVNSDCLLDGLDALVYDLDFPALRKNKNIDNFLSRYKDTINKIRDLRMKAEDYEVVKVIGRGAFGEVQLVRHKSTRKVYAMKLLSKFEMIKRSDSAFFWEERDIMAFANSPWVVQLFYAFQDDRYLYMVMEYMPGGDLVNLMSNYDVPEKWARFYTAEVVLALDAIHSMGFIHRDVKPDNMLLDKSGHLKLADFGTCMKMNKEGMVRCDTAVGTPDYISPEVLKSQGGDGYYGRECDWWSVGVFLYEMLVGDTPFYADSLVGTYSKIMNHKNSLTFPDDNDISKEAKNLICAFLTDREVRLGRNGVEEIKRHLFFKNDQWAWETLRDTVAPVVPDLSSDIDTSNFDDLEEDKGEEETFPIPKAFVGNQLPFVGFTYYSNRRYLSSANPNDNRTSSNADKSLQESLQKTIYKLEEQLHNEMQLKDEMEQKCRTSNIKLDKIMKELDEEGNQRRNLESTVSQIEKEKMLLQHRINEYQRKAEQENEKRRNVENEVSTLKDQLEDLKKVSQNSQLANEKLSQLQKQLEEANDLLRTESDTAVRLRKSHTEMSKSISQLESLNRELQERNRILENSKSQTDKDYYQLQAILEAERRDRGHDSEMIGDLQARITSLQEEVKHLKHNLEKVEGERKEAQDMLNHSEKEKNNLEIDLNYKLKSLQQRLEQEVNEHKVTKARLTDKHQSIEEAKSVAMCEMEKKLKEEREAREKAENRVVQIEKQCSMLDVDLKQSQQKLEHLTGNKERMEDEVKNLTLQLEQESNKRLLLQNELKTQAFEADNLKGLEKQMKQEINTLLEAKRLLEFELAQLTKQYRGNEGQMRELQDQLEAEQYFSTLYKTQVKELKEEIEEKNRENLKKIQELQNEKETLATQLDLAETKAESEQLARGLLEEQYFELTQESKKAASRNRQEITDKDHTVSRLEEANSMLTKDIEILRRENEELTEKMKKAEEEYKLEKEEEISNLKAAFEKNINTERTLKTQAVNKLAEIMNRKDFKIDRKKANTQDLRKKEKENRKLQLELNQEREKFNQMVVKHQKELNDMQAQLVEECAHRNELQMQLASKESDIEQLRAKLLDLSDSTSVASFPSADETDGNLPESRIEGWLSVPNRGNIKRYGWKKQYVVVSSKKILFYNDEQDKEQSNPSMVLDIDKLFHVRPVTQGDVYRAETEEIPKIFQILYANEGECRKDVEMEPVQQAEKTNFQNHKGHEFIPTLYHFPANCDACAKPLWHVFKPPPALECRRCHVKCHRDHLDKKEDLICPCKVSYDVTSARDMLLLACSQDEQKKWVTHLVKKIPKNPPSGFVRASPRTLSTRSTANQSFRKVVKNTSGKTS

Row | IC50 [1] [µM] | IC50 [2] [µM] | IC50 [3] [µM] | IC50 [4] [µM] | SMILES
1 | 0.29 | 0.01 | 0.03 | – | C[C@@H](N)[C@H]1CC[C@H](C(=O)Nc2ccnc3[nH]ccc23)CC1
2 | – | – | – | 3.03 | Cc1cncc2cccc(S(=O)(=O)N3CCCNC[C@@H]3C)c12
